The test system of the assay is T1, β-glucosidase isoform II (β-glucosidase II, Sebg).
T1 construct: native, purified from fruit epicarp and mesocarp
Description: p-nitrophenol release, nonlinear regression. In kind it is biochemical, Sechium edule. To be noted: 40 °C, 0.2 M sodium citrate pH 5.0 (pH 5.5). The source says: p-nitrophenol release, nonlinear regression on β-glucosidase isoform II (β-glucosidase II, Sebg)

Three molecules from article PMC7180739, “Aggregation and Molecular Properties of β-Glucosidase Isoform II in Chayote (Sechium edule)” (Molecules, 2020) can be followed below.

For `O=[N+]([O-])c1ccc(O[C@@H]2O[C@H](CO)[C@H](O)[C@H](O)[C@H]2O)cc1` [pNPGal, p-Nitrophenyl-β-D-galactopyranoside], the Km (as a rule, the concentration of substrate that gives half-maximal velocity) worked out at 5.72 ± 0.45 mM. With `C[C@H]1O[C@@H](Oc2ccc([N+](=O)[O-])cc2)[C@H](O)[C@@H](O)[C@H]1O` [pNPFuc, p-Nitrophenyl-β-D-fucopyranoside] the figure was 16.1 ± 2.62 mM. As to `O=[N+]([O-])c1ccc(O[C@@H]2O[C@H](CO)[C@@H](O)[C@H](O)[C@H]2O)cc1` [pNPGlc, p-Nitrophenyl-β-D-glucopyranoside], the Michaelis-Menten constant (Km) amounted to 4.59 ± 0.49 mM.
